Test results published in patent publication US10131649B2, “Bicyclic compounds as pest control agents” (BAYER CROPSCIENCE AKTIENGESELLSCHAFT, priority 2014, dated 2018).
Like-named read-outs stand apart in the source and are kept apart here.

Legend:
[1] = tested on: larvae of the mustard beetle (Phaedon cochleariae); test: Phaedon cochleariae spray test; format: in vivo; settings: application rate 500 g/ha; after 7 days; 100% = all beetle larvae killed
Method: Phaedon cochleariae—Spray Test
(§1) Solvent: • 78.0 parts by weight of acetone • 1.5 parts by weight of dimethylformamide
(§2) Emulsifier: alkylaryl polyglycol ether
(§3) To produce a suitable preparation of active compound, 1 part by weight of active compound is dissolved using the specified parts by weight of solvent and made up with water containing an emulsifier concentration of 1000 ppm until the desired concentration is attained. To produce further test concentrations, the formulation is diluted with emulsifier-containing water.
Discs of Chinese cabbage leaves (Brassica pekinensis) are sprayed with an active compound preparation of the desired concentration and, after drying, populated with larvae of the mustard beetle (Phaedon cochleariae).
After 7 days, the efficacy in % is determined. 100% means that all the beetle larvae have been killed; 0% means that no beetle larvae have been killed.

[2] = tested on: green peach aphid (Myzus persicae); test: Myzus persicae spray test (Chinese cabbage leaf discs); format: in vivo; settings: foliar, 144 h, read-out: efficacy in %
Method: (§4) Myzus persicae—Spray Test
Solvent: • 78 parts by weight of acetone • 1.5 parts by weight of dimethylformamide
as §2, §3
Discs of Chinese cabbage leaves (Brassica pekinensis) infested by all stages of the green peach aphid (Myzus persicae) are sprayed with an active compound formulation of the desired concentration.
After 6 days, the efficacy in % is determined. 100% means that all the aphids have been killed; 0% means that no aphids have been killed.

[3] = tested on: caterpillars of the armyworm (Spodoptera frugiperda); test: Spodoptera frugiperda spray test; format: in vivo; settings: application rate 500 g/ha; after 7 days; maize leaf discs; 100% = all caterpillars killed
Method: Spodoptera frugiperda—Spray Test
as §1, §2, §3
Leaf discs of maize (Zea mays) are sprayed with an active compound formulation of the desired concentration and, after drying, populated with caterpillars of the armyworm (Spodoptera frugiperda).
After 7 days, the efficacy in % is determined. 100% means that all the caterpillars have been killed; 0% means that no caterpillar has been killed.

[4] = log P by HPLC on reversed-phase columns (OECD Guideline 117), [a] acidic pH 2.7, [b] neutral pH 7.8; format: physicochemical; settings: reversed-phase (C18) HPLC column
Method: The log P values were determined in accordance with OECD Guideline 117 (EC Directive 92/69/EEC) by HPLC (high-performance liquid chromatography) using reversed-phase (RP) columns (C18), by the following methods:
[a] The LC-MS determination in the acidic range is carried out at pH 2.7 with 0.1% aqueous formic acid and acetonitrile (contains 0.1% formic acid) as eluents; linear gradient from 10% acetonitrile to 95% acetonitrile.
[b] LC-MS determination in the neutral range is effected at pH 7.8 with 0.001 molar aqueous ammonium hydrogencarbonate solution and acetonitrile as eluents; linear gradient from 10% acetonitrile to 95% acetonitrile.
Calibration is carried out using unbranched alkan-2-ones (having 3 to 16 carbon atoms) with known log P values (log P values determined on the basis of the retention times by linear interpolation between two successive alkanones).

[5] = tested on: green peach aphid (Myzus persicae); test: Myzus persicae spray test (bell pepper plants); format: in vivo; settings: application rate 4 ppm, after 6 days, 100% = all aphids killed
Method: as §4
Solvent: 7 parts by weight of dimethylformamide
as §2
as §3, with “water. If the addition of ammonium salts or/and penetrants is required, these are each added in a concentration of 1000 ppm to the formulation solution.” for “water.”
Bell pepper plants (Capsicum annuum) severely infested with the green peach aphid (Myzus persicae) are treated by spraying with the active compound formulation in the desired concentration.
After 6 days, the kill in % is determined. 100% means that all of the aphids have been killed; 0% means that none of the aphids have been killed.

[6] = tested on: engorged adult female cattle ticks (Boophilus microplus); test: Boophilus microplus injection test; format: in vivo; settings: application rate 20 μg/animal, assessed after 7 days, 100% = no tick laid fertile eggs
Method: Boophilus microplus—Injection Test
(§5) Solvent: dimethyl sulphoxide
To produce a suitable preparation of active compound, 10 mg of active compound are mixed with 0.5 ml of solvent and the concentrate is diluted with solvent to the desired concentration.
1 μl of the active compound solution is injected into the abdomen of 5 engorged adult female cattle ticks (Boophilus microplus). The animals are transferred into dishes and kept in a climate-controlled room.
Efficacy is assessed after 7 days by laying of fertile eggs. Eggs which are not externally visibly fertile are stored in a climate-controlled cabinet until the larvae hatch after about 42 days. An efficacy of 100% means that none of the ticks has laid any fertile eggs; 0% means that all the eggs are fertile.

[7] = tested on: nematode larvae (Cooperia curticei); test: Cooperia curticei test; format: in vivo; settings: application rate 20 ppm; after 5 days; 100% = all larvae killed
Method: as §5
(§6) To produce a suitable preparation of active compound, 10 mg of active compound are mixed with 0.5 ml of dimethyl sulfoxide and the concentrate is diluted with “Ringer's solution” to the desired concentration.
Vessels containing the active compound preparation of the desired concentration are populated with about 40 nematode larvae (Cooperia curticei).
(§7) After 5 days, the kill in % is determined. 100% means that all the larvae have been killed; 0% means that none of the larvae have been killed.

[8] = tested on: larvae of the red stomach worm (Haemonchus contortus); test: Haemonchus contortus test; format: in vivo; settings: application rate 20 ppm; after 5 days; 100% = all larvae killed
Method: Haemonchus contortus—Test
as §5, §6
Vessels containing the active compound preparation of the desired concentration are populated with about 40 larvae of the red stomach worm (Haemonchus contortus).
as §7

[9] = tested on: southern root-knot nematode (Meloidogyne incognita); test: Meloidogyne incognita test; format: in vivo; settings: application rate 20 ppm; after 14 days; lettuce; 100% = no galls found
Method: Meloidogyne incognita—Test
Solvent: 125.0 parts by weight of acetone
To produce a suitable active compound preparation, 1 part by weight of active compound is mixed with the stated amount of solvent and the concentrate is diluted with water to the desired concentration.
Vessels are filled with sand, active compound solution, an egg/larvae suspension of the southern root-knot nematode (Meloidogyne incognita) and lettuce seeds. The lettuce seeds germinate and the plants develop. The galls develop on the roots.
After 14 days, the nematicidal efficacy in % is determined by the formation of galls. 100% means that no galls were found; 0% means that the number of galls on the treated plants corresponds to the untreated control.

[10] = tested on: greenhouse red spider mite (Tetranychus urticae); test: Tetranychus urticae spray test, OP-resistant; format: in vivo; settings: application rate 500 g/ha; after 6 days; bean leaf discs; 100% = all spider mites killed
Method: Tetranychus urticae—Spray Test, OP-Resistant
as §1, §2, §3
Discs of bean leaves (Phaseolus vulgaris) infested with all stages of the greenhouse red spider mite (Tetranychus urticae) are sprayed with an active compound formulation of the desired concentration.
After 6 days, the efficacy in % is determined. 100% means that all the spider mites have been killed; 0% means that no spider mites have been killed.

[11] = acidic pH 2.7, read-out: logP[a]
[12] = neutral pH 7.8, read-out: logP[b]

Work on `Fc1cncc(-n2cc3cc(C(F)(F)F)ccc3n2)c1` [Example 16] yielded an efficacy in % [1] of 100% and a pest or weed control at 500 g/ha [2] of 100%.

Work on `CN(C)C(=O)c1ccc2nn(-c3cnn(C)c3)cc2c1` [Example 38] yielded an efficacy in % [1] of 100% and an efficacy in % [3] of 100%.

Compound `Cc1cc(C)c(-c2ccc3nn(-c4cccnc4)cc3c2)cc1SCC(F)(F)F` [Example 51, 5-[2,4-Dimethyl-5-(2,2,2-trifluoroethylsulphanyl)phenyl]-2-(3-pyridyl)indazole] has a chromatographic logP [4, 11] of 4.42, a chromatographic logP [4, 12] of 4.4 and a pest or weed control at 500 g/ha [2] of 90%. For the same compound, the “efficacy (kill in %)” value [5] was 100%.

With `Cc1cc(F)c(-c2ccc3nn(-c4cccnc4)cc3c2)cc1[S+]([O-])CC(F)(F)F` (stereo not shown) [Example 52, 5-[2-Fluoro-4-methyl-5-(2,2,2-trifluoroethylsulphinyl)phenyl]-2-(3-pyridyl)indazole] the chromatographic logP [4, 11] was 2.8, the chromatographic logP [4, 12] was 2.74 and the pest or weed control at 500 g/ha [2] was 100%. For the same compound, the “efficacy (laying of fertile eggs)” value [6] was 100%.

Work on `Cc1ccc(-c2ccc3nn(-c4cccnc4)cc3c2)nc1` [Example 65] yielded a chromatographic logP [4, 11] of 1.23, a chromatographic logP [4, 12] of 2.25 and a pest or weed control at 500 g/ha [2] of 90%. For the same compound, the “efficacy (kill in %)” value [7] was 90% and the “efficacy (kill in %)” value [8] was 80%.

`Clc1ccc(-c2ccc3nn(-c4cccnc4)cc3c2)nc1` [Example 67] gave a chromatographic logP [4, 11] of 2.8, a chromatographic logP [4, 12] of 2.78 and a pest or weed control at 500 g/ha [2] of 100%. The “efficacy (kill in %)” value [7] was 80% and the “efficacy (kill in %)” value [8] was 80%.

With `FC(F)(F)Cn1cc(-c2ccc3nn(-c4cccnc4)cc3c2)cn1` [Example 99, 2-(Pyridin-3-yl)-5-[1-(2,2,2-trifluoroethyl)-1H-pyrazol-4-yl]-2H-indazole] the chromatographic logP [4, 11] was 2.12, the chromatographic logP [4, 12] was 2.12 and the pest or weed control at 500 g/ha [2] was 90%. For the same compound, the “nematicidal efficacy in % (formation of galls)” value [9] was 90%.

`Fc1cccc(-c2ccc3nn(-c4cccnc4)cc3c2)n1` [Example 104] showed a chromatographic logP [4, 11] of 2.4, a chromatographic logP [4, 12] of 2.44 and a pest or weed control at 500 g/ha [2] of 90%. For the same compound, the “nematicidal efficacy in % (formation of galls)” value [9] was 90%.

In the case of `Cc1cc(F)c(C(=O)N(C)c2ccc3nn(-c4cnn(C)c4)cc3c2)cc1[S+]([O-])CC(F)(F)F` (stereo not shown) [Example 117], the efficacy in % [10] is reported as 90%.
